Common to all, as to test: cell-based
One assay has as its target hNav1.3 (Homo sapiens, UniProt Q9NY46). The settings on record: IonWorks Quattro, read-out: IC50 (μM) Nav1.3.
Another assay concerns the target hNav1.7 (Homo sapiens, UniProt Q15858). The settings on record: read-out: IC50 (μM) Nav1.7.
The next assay addresses hNav1.5 (Homo sapiens, UniProt Q14524). The settings on record: IonWorks Quattro, read-out: IC50 (μM) Nav1.5. (The patch-clamp technique gives a direct electrical read-out from membranes.)
The target of the next assay is hNav1.4 (Homo sapiens, UniProt P35499). It is filed as cell-based. The conditions noted are these: for IC50: IonWorks Quattro, read-out: IC50 (μM) Nav1.4; for Nav1.4/Nav1.7: ratio of IonWorks Quattro IC50 values.

Like-named read-outs stand apart in the source and are kept apart here.

Chain of hNav1.3 (Q9NY46 whole entry): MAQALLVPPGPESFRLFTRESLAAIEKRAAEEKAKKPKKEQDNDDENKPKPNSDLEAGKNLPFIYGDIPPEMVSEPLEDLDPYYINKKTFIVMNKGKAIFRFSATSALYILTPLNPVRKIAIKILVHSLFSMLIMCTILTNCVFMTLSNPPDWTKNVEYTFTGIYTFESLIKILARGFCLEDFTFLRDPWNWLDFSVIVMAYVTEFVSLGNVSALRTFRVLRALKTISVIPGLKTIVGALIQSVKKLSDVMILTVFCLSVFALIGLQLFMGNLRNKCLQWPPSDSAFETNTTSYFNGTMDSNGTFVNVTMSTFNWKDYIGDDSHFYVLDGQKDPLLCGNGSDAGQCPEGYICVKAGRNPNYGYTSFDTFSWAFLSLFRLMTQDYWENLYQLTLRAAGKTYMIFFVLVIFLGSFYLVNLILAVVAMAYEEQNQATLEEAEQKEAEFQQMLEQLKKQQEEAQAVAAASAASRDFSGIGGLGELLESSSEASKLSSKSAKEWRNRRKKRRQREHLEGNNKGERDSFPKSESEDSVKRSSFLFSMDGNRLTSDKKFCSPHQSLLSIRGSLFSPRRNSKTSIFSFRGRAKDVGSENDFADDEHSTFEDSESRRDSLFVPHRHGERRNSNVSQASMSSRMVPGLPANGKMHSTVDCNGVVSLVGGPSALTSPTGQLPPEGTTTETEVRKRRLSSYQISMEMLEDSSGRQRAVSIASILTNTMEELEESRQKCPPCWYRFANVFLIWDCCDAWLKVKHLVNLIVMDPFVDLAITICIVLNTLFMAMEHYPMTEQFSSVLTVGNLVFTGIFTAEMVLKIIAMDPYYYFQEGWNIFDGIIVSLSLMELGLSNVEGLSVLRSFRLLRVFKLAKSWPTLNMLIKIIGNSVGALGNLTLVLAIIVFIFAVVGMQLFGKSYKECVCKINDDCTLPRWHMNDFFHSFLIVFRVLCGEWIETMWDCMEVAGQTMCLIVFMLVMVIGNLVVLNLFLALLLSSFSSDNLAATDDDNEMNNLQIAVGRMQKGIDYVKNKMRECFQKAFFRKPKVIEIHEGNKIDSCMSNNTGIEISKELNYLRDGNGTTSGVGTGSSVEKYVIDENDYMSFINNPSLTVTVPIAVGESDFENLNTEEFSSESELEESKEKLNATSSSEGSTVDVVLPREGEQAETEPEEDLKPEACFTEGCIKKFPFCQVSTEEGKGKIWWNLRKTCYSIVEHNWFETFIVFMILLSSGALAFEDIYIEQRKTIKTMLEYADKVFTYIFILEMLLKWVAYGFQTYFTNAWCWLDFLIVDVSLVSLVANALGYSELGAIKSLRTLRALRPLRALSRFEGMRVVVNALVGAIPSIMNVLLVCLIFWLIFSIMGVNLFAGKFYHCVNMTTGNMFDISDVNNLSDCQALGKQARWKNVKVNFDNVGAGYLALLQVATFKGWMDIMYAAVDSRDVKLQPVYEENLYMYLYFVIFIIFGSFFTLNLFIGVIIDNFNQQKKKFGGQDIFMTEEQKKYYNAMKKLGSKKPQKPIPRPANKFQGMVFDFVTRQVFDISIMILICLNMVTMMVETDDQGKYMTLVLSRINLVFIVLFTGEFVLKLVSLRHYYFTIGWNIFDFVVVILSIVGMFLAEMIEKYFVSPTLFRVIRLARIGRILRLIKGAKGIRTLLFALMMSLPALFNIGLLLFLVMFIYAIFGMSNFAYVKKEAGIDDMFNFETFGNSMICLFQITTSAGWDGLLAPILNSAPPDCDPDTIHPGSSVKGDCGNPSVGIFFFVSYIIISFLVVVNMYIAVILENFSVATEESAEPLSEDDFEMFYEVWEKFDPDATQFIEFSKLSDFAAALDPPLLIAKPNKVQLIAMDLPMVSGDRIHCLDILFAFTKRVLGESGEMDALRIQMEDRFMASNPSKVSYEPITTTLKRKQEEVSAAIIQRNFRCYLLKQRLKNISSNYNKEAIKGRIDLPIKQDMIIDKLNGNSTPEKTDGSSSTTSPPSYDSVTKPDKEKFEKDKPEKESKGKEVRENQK
Chain of hNav1.4 (P35499 whole entry): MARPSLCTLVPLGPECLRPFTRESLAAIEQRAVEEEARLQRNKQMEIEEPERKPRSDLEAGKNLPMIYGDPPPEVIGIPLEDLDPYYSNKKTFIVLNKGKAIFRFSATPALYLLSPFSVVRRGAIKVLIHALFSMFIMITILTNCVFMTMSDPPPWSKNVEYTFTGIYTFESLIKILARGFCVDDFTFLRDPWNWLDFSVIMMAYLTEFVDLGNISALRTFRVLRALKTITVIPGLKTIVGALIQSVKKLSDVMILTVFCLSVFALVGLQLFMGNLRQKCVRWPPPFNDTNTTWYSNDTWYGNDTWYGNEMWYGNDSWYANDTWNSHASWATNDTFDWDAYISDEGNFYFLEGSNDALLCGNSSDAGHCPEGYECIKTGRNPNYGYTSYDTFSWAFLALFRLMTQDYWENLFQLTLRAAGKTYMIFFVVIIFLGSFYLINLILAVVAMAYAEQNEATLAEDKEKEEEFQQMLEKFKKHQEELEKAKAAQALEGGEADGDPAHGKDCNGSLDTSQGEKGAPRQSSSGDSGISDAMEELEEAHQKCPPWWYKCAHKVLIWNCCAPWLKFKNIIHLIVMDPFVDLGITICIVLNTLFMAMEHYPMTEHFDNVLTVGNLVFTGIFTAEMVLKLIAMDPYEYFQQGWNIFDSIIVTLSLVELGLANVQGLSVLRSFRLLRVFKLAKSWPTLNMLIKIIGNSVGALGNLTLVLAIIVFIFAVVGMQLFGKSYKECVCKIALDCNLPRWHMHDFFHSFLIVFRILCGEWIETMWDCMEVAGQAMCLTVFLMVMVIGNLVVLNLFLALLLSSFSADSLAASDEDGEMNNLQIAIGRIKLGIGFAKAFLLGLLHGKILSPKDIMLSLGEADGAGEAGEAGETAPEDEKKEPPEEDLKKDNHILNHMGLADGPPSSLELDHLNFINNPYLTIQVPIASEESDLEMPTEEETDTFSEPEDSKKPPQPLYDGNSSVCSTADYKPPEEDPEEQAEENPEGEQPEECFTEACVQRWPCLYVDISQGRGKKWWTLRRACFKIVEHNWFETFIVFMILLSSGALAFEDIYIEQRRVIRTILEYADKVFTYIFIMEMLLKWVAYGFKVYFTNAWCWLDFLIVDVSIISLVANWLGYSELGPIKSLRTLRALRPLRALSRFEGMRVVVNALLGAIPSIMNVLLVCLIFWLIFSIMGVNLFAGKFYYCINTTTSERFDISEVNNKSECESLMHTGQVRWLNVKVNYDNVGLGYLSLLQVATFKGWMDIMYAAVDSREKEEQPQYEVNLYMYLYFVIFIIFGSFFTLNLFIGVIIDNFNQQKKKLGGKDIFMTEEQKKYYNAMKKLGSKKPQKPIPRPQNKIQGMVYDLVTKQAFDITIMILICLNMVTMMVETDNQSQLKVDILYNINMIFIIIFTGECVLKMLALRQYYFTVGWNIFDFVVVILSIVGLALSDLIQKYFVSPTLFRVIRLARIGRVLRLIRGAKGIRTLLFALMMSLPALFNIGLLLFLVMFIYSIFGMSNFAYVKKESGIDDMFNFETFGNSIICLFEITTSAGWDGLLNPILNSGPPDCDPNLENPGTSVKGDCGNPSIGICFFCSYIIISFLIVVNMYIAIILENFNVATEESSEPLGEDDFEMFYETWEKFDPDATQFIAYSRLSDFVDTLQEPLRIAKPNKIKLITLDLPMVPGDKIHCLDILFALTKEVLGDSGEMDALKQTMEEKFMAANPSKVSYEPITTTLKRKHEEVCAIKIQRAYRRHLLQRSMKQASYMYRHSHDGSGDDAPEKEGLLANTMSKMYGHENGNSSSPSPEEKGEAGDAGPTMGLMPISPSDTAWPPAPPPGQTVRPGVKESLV

Consider `CC[C@H](C)[C@H](NC(=O)[C@@H](NC(=O)[C@H](CCCCN)NC(=O)[C@H](CCCNC(=N)N)NC(=O)[C@@H]1CSSC[C@@H]2NC(=O)[C@H](C)NC(=O)[C@H](CCCNC(=N)N)NC(=O)[C@H](CCCCN)NC(=O)[C@H](C)NC(=O)[C@H](CC(=O)O)NC(=O)[C@@H]3CSSC[C@H](NC(=O)[C@H](CCCNC(=N)N)NC(=O)[C@H](CC(C)C)NC(=O)CNC(=O)[C@H](CCC(=O)O)NC(=O)[C@H](CSSC[C@H](NC(=O)[C@@H](N)Cc4ccc(O)cc4)C(=O)N[C@@H](CCC(N)=O)C(=O)N[C@@H](CCCCN)C(=O)N[C@@H](Cc4c[nH]c5ccccc45)C(=O)N[C@@H](CCSC)C(=O)N[C@@H](Cc4c[nH]c5ccccc45)C(=O)N[C@@H]([C@@H](C)O)C(=O)N3)NC2=O)C(=O)N[C@@H](CCCCN)C(=O)N[C@@H](CC(C)C)C(=O)N[C@@H](Cc2c[nH]c3ccccc23)C(=O)N1)[C@@H](C)CC)C(N)=O` [compound 11], for which the IC50 amounted to 0.14 µM on hNav1.3 (Table 6), 0.012 µM on hNav1.7, 3.6 µM at hNav1.5 (Table 6) and 0.16 µM at hNav1.4 (Table 6). The Nav1.4/Nav1.7 at hNav1.4 (Table 6) came out at 13.
Turning to `CC[C@H](C)[C@H](NC(=O)[C@@H](NC(=O)[C@H](CCCCN)NC(=O)[C@H](CCCNC(=N)N)NC(=O)[C@@H]1CSSC[C@@H]2NC(=O)[C@H](C)NC(=O)[C@H](CCCNC(=N)N)NC(=O)[C@H](CCCCN)NC(=O)[C@H](CO)NC(=O)[C@H](CC(=O)O)NC(=O)[C@@H]3CSSC[C@H](NC(=O)[C@H](CCCNC(=N)N)NC(=O)[C@H](CC(C)C)NC(=O)CNC(=O)[C@H](CCC(=O)O)NC(=O)[C@H](CSSC[C@H](NC(=O)[C@@H](N)Cc4ccc(O)cc4)C(=O)N[C@@H](CCC(N)=O)C(=O)N[C@@H](CCCNC(=N)N)C(=O)N[C@@H](Cc4c[nH]c5ccccc45)C(=O)N[C@@H](CCSC)C(=O)N[C@@H](Cc4c[nH]c5ccccc45)C(=O)N[C@@H]([C@@H](C)O)C(=O)N3)NC2=O)C(=O)N[C@@H](CCCCN)C(=O)N[C@@H](CC(C)C)C(=O)N[C@@H](Cc2c[nH]c3ccccc23)C(=O)N1)[C@@H](C)CC)C(N)=O` [compound 92], the IC50 at hNav1.3 (Table 6) was found to be 0.07 µM; on hNav1.7 it was 0.014 µM; at hNav1.5 (Table 6) it was 2 µM; on hNav1.4 (Table 6), 0.16 µM. Besides, the Nav1.4/Nav1.7 at hNav1.4 (Table 6) came out at 11.
On the same counts, the results for `CC[C@H](C)[C@H](NC(=O)[C@@H](NC(=O)[C@H](CCCCN)NC(=O)[C@H](CCCNC(=N)N)NC(=O)[C@@H]1CSSC[C@@H]2NC(=O)[C@H](C)NC(=O)[C@H](CCCNC(=N)N)NC(=O)[C@H](CCCCN)NC(=O)[C@H](CO)NC(=O)[C@H](CC(=O)O)NC(=O)[C@@H]3CSSC[C@H](NC(=O)[C@H](CCCNC(=N)N)NC(=O)[C@H](CC(C)C)NC(=O)CNC(=O)[C@H](CCC(=O)O)NC(=O)[C@H](CSSC[C@H](NC(=O)[C@@H](N)Cc4ccc(O)cc4)C(=O)N[C@@H](CCC(N)=O)C(=O)N[C@@H](CCCCN)C(=O)N[C@@H](Cc4c[nH]c5ccccc45)C(=O)N[C@@H](CCSC)C(=O)N[C@@H](Cc4c[nH]c5ccccc45)C(=O)N[C@@H]([C@@H](C)O)C(=O)N3)NC2=O)C(=O)N[C@@H](CCCCN)C(=O)N[C@@H](CC(C)C)C(=O)N[C@@H](Cc2cccc3ccccc23)C(=O)N1)[C@@H](C)CC)C(N)=O` [compound 43] are 0.46 µM, 0.075 µM, over 5 µM, 0.33 µM and 4.
`CCCC[C@@H]1NC(=O)[C@H](Cc2c[nH]c3ccccc23)NC(=O)[C@H](CCCCN)NC(=O)[C@H](CCC(N)=O)NC(=O)[C@@H](NC(=O)[C@@H](N)Cc2ccc(O)cc2)CSSC[C@@H]2NC(=O)[C@@H]3CSSC[C@@H](C(=O)N[C@@H](CCCNC(=N)N)C(=O)N[C@@H](CCCCN)C(=O)N[C@H](C(=O)N[C@H](C(N)=O)[C@@H](C)CC)[C@@H](C)CC)NC(=O)[C@H](Cc4c[nH]c5ccccc45)NC(=O)[C@H](CC(C)C)NC(=O)[C@H](CCCCN)NC(=O)[C@H](CSSC[C@H](NC(=O)[C@H]([C@@H](C)O)NC(=O)[C@H](Cc4cn(CCCOCCOCCOCCOCCOCCOCCOCCOCCOCCOCCN)nn4)NC1=O)C(=O)N[C@@H](CC(=O)O)C(=O)N[C@@H](CO)C(=O)N[C@@H](CCCCN)C(=O)N[C@@H](CCCNC(=N)N)C(=O)N[C@@H](C)C(=O)N3)NC(=O)[C@H](CCCNC(=N)N)NC(=O)[C@H](CC(C)C)NC(=O)CNC(=O)[C@H](CCC(=O)O)NC2=O` [compound 253]: the IC50 at hNav1.3 (Table 9) is over 7 µM; on hNav1.7 (IonWorks Quattro, […]) it was 4.6 µM; on hNav1.5 (Table 9), over 7 µM; at hNav1.4 (Table 9), over 7 µM.
For the compound `CC[C@H](C)[C@H](NC(=O)[C@@H](NC(=O)[C@H](CCCCN)NC(=O)[C@H](CCCNC(=N)N)NC(=O)[C@@H]1CSSC[C@@H]2NC(=O)[C@H](C)NC(=O)[C@H](CCCCN)NC(=O)[C@H](CCCCN)NC(=O)[C@H](CO)NC(=O)[C@H](CC(=O)O)NC(=O)[C@@H]3CSSC[C@H](NC(=O)[C@H](CCCNC(=N)N)NC(=O)[C@H](CC(C)C)NC(=O)CNC(=O)[C@H](CCC(=O)O)NC(=O)[C@H](CSSC[C@H](NC(=O)[C@@H](N)Cc4ccc(O)cc4)C(=O)N[C@@H](CCC(N)=O)C(=O)N[C@@H](CCCCN)C(=O)N[C@@H](Cc4c[nH]c5ccccc45)C(=O)N[C@@H](CCSC)C(=O)N[C@@H](Cc4c[nH]c5ccccc45)C(=O)N[C@@H]([C@@H](C)O)C(=O)N3)NC2=O)C(=O)N[C@@H](CCCCN)C(=O)N[C@@H](CC(C)C)C(=O)N[C@@H](Cc2c[nH]c3ccccc23)C(=O)N1)[C@@H](C)CC)C(N)=O` [compound 79], the half-inhibitory concentration (IC50) was 0.12 µM at hNav1.3 (Table 6), 0.064 µM at hNav1.7, over 5 µM at hNav1.5 (Table 6) and 0.47 µM at hNav1.4 (Table 6). Moreover, the Nav1.4/Nav1.7 at hNav1.4 (Table 6) was found to be 7.
For `CC[C@H](C)[C@H](NC(=O)[C@@H](NC(=O)[C@H](CCCCN)NC(=O)[C@H](CCCNC(=N)N)NC(=O)[C@@H]1CSSC[C@@H]2NC(=O)[C@H](C)NC(=O)[C@H](CCCNC(=N)N)NC(=O)[C@H](CCCCN)NC(=O)[C@H](CO)NC(=O)[C@H](CC(=O)O)NC(=O)[C@@H]3CSSC[C@H](NC(=O)[C@H](CCCNC(=N)N)NC(=O)[C@H](CC(C)C)NC(=O)CNC(=O)[C@H](CCC(=O)O)NC(=O)[C@H](CSSC[C@H](NC(=O)[C@@H](N)Cc4ccc(O)cc4)C(=O)N[C@@H](CCC(N)=O)C(=O)N[C@@H](CCCCN)C(=O)N[C@@H](Cc4c[nH]c5ccccc45)C(=O)N[C@@H](CCSC)C(=O)N[C@@H](C)C(=O)N[C@@H]([C@@H](C)O)C(=O)N3)NC2=O)C(=O)N[C@@H](CCCCN)C(=O)N[C@@H](CC(C)C)C(=O)N[C@@H](Cc2c[nH]c3ccccc23)C(=O)N1)[C@@H](C)CC)C(N)=O` [compound 8], the IC50 at hNav1.3 (Table 6) was 0.94 µM; at hNav1.7, 0.15 µM; at hNav1.5 (Table 6), over 5 µM; at hNav1.4 (Table 6), 0.69 µM. The Nav1.4/Nav1.7 on hNav1.4 (Table 6) is recorded as 5.
With `CC[C@H](C)[C@H](NC(=O)[C@@H](NC(=O)[C@H](CCCCN)NC(=O)[C@H](CCCNC(=N)N)NC(=O)[C@@H]1CSSC[C@@H]2NC(=O)[C@H](C)NC(=O)[C@H](CCCNC(=N)N)NC(=O)[C@H](CCCCN)NC(=O)[C@H](CO)NC(=O)[C@H](CC(=O)O)NC(=O)[C@@H]3CSSC[C@H](NC(=O)[C@H](CCCNC(=N)N)NC(=O)[C@H](CC(C)C)NC(=O)CNC(=O)[C@H](CCC(=O)O)NC(=O)[C@H](CSSC[C@H](NC(=O)[C@@H](N)Cc4ccc(O)cc4)C(=O)N[C@@H](CCC(N)=O)C(=O)N[C@@H](CCCCN)C(=O)N[C@@H](Cc4c[nH]c5ccccc45)C(=O)N[C@@H](CCSC)C(=O)N[C@@H](Cc4c[nH]c5ccccc45)C(=O)N[C@@H]([C@@H](C)O)C(=O)N3)NC2=O)C(=O)N[C@@H](CCCCN)C(=O)N[C@@H](C)C(=O)N[C@@H](Cc2c[nH]c3ccccc23)C(=O)N1)[C@@H](C)CC)C(N)=O` [compound 19], the IC50 is 0.44 µM at hNav1.3 (Table 6), 0.3 µM at hNav1.7, over 5 µM on hNav1.5 (Table 6) and 0.34 µM at hNav1.4 (Table 6). The Nav1.4/Nav1.7 on hNav1.4 (Table 6) was 1.
On the same counts, the results for `CC[C@H](C)[C@H](NC(=O)[C@@H](NC(=O)[C@H](CCCCN)NC(=O)[C@H](CCCNC(=N)N)NC(=O)[C@@H]1CSSC[C@@H]2NC(=O)[C@H](C)NC(=O)[C@H](CCCNC(=N)N)NC(=O)[C@H](C)NC(=O)[C@H](CO)NC(=O)[C@H](CC(=O)O)NC(=O)[C@@H]3CSSC[C@H](NC(=O)[C@H](CCCNC(=N)N)NC(=O)[C@H](CC(C)C)NC(=O)CNC(=O)[C@H](CCC(=O)O)NC(=O)[C@H](CSSC[C@H](NC(=O)[C@@H](N)Cc4ccc(O)cc4)C(=O)N[C@@H](CCC(N)=O)C(=O)N[C@@H](CCCCN)C(=O)N[C@@H](Cc4c[nH]c5ccccc45)C(=O)N[C@@H](CCSC)C(=O)N[C@@H](Cc4c[nH]c5ccccc45)C(=O)N[C@@H]([C@@H](C)O)C(=O)N3)NC2=O)C(=O)N[C@@H](CCCCN)C(=O)N[C@@H](CC(C)C)C(=O)N[C@@H](Cc2c[nH]c3ccccc23)C(=O)N1)[C@@H](C)CC)C(N)=O` [compound 12] are 0.15 µM, 0.022 µM, over 5 µM, 0.26 µM and 12.

Usually IC50 stands for the midpoint of a concentration-inhibition curve.
